# Calls of active or inactive are those of the source. The calls are words filed in the database; no cut-off is given here.
# Key:
# [1] = test system: Escherichia coli; assay: Antibacterial activity against Escherichia coli KCTC 1682 strain assessed as bacterial growth inhibition measured at 18 to 24 hrs by microdilution assay; format: functional; conditions: time 18-24 hrs
# [2] = test system: Pseudomonas aeruginosa; assay: Antibacterial activity against Pseudomonas aeruginosa KCTC 1637 strain assessed as bacterial growth inhibition measured at 18 to 24 hrs by microdilution assay; format: functional; conditions: time 18-24 hrs
# [3] = test system: Staphylococcus epidermidis; assay: Antibacterial activity against Staphylococcus epidermidis KCTC 1917 strain assessed as bacterial growth inhibition measured at 18 to 24 hrs by microdilution assay; format: functional; conditions: time 18-24 hrs
# [4] = test system: Staphylococcus aureus; assay: Antibacterial activity against Staphylococcus aureus KCTC 1621 strain assessed as bacterial growth inhibition measured at 18 to 24 hrs by microdilution assay; format: functional; conditions: time 18-24 hrs
# [5] = test system: Erythrocyte; assay: Hemolytic activity in sheep RBC assessed as minimal hemolytic concentration causing 10% hemolysis incubated for 1 hr by ELISA; format: toxicity, cell-based, Ovis aries
# [6] = test system: Escherichia coli; assay: Antibacterial activity against Escherichia coli KCTC 1682 strain assessed as bacterial growth inhibition measured at 18 to 24 hrs in presence of 4.5 mM KCl by microdilution assay; format: functional; conditions: time 18-24 hrs
# [7] = test system: Escherichia coli; assay: Antibacterial activity against Escherichia coli KCTC 1682 strain assessed as bacterial growth inhibition measured at 18 to 24 hrs in presence of 6 uM NH4Cl by microdilution assay; format: functional; conditions: time 18-24 hrs
# [8] = test system: Escherichia coli; assay: Antibacterial activity against Escherichia coli KCTC 1682 strain assessed as bacterial growth inhibition measured at 18 to 24 hrs in presence of 4 uM FeCl3 by microdilution assay; format: functional; conditions: time 18-24 hrs
# [9] = test system: Staphylococcus aureus; assay: Antibacterial activity against Staphylococcus aureus KCTC 1621 strain assessed as bacterial growth inhibition measured at 18 to 24 hrs in presence of 4.5 mM KCl by microdilution assay; format: functional; conditions: time 18-24 hrs
# [10] = test system: Staphylococcus aureus; assay: Antibacterial activity against Staphylococcus aureus KCTC 1621 strain assessed as bacterial growth inhibition measured at 18 to 24 hrs in presence of 2.5 mM CaCl2 by microdilution assay; format: functional; conditions: time 18-24 hrs
# [11] = test system: Escherichia coli; assay: Antibacterial activity against Escherichia coli KCTC 1682 strain assessed as bacterial growth inhibition measured after 6 hrs in presence of trypsin by radial diffusion assay; format: functional, organism-based
# [12] = test system: Escherichia coli; assay: Antibacterial activity against Escherichia coli KCTC 1682 strain assessed as bacterial growth inhibition measured after 6 hrs in presence of chymotrypsin by radial diffusion assay; format: functional, organism-based
# [13] = test system: Escherichia coli; assay: Antibacterial activity against Escherichia coli KCTC 1682 strain assessed as bacterial growth inhibition measured after 6 hrs in presence of proteinase K by radial diffusion assay; format: functional, organism-based
# [14] = test system: Lipopolysaccharide (LPS); assay: Binding affinity to Escherichia coli O111:B4 lipopolysaccharide assessed as suppression of FTIC labeled LPS binding to mouse RAW264.7 cells at 20 ug/ml pretreated with LPS followed by compound addition by flow cytometer assay (reference value: 67.4%); format: cell-based; conditions: dose 20.0 µg/ml
# [15] = test system: Cell membrane; assay: Induction of cell membrane depolarization in Staphylococcus aureus assessed as fluorescence intensity at 2 to 16 times MIC by DiSC3(5) dye based fluorescence assay; format: subcellular
# [16] = test system: Pseudomonas aeruginosa; assay: Synergistic antibacterial activity against multidrug-resistant Pseudomonas aeruginosa CCARM 2095 strain assessed as ciprofloxacin MIC by checkerboard assay; format: functional
# [17] = test system: Pseudomonas aeruginosa; assay: Synergistic antibacterial activity against multidrug-resistant Pseudomonas aeruginosa CCARM 2095 strain assessed as bacterial growth inhibition in presence of ciprofloxacin by checkerboard assay; format: functional
# [18] = test system: Pseudomonas aeruginosa; assay: Synergistic antibacterial activity against multidrug-resistant Pseudomonas aeruginosa CCARM 2095 strain assessed as ciprofloxacin fractional inhibitory concentration by checkerboard assay; format: functional
# [19] = test system: Pseudomonas aeruginosa; assay: Synergistic antibacterial activity against multidrug-resistant Pseudomonas aeruginosa CCARM 2095 strain assessed as oxacillin fractional inhibitory concentration by checkerboard assay; format: functional
# [20] = test system: Pseudomonas aeruginosa; assay: Synergistic antibacterial activity against multidrug-resistant Pseudomonas aeruginosa CCARM 2095 strain assessed as chloramphenicol fractional inhibitory concentration in presence of chloramphenicol by checkerboard assay; format: functional
# [21] = test system: Pseudomonas aeruginosa; assay: Synergistic antibacterial activity against multidrug-resistant Pseudomonas aeruginosa CCARM 2095 strain assessed as oxacillin fractional inhibitory concentration in presence of oxacillin by checkerboard assay; format: functional
# [22] = test system: Pseudomonas aeruginosa; assay: Synergistic antibacterial activity against multidrug-resistant Pseudomonas aeruginosa CCARM 2095 strain assessed as fractional inhibitory concentration index in presence of chloramphenicol by checkerboard assay; format: functional
# [23] = test system: Pseudomonas aeruginosa; assay: Synergistic antibacterial activity against multidrug-resistant Pseudomonas aeruginosa CCARM 2095 strain assessed as fractional inhibitory concentration index in presence of ciprofloxacin by checkerboard assay; format: functional
# [24] = test system: Pseudomonas aeruginosa; assay: Synergistic antibacterial activity against multidrug-resistant Pseudomonas aeruginosa CCARM 2095 strain assessed as fractional inhibitory concentration index in presence of oxacillin by checkerboard assay; format: functional
# [25] = test system: Staphylococcus aureus; assay: Antibacterial activity against methicillin-resistant Staphylococcus aureus CCARM 3089 strain assessed as bacterial growth inhibition by checkerboard assay; format: functional
# [26] = test system: Staphylococcus aureus; assay: Synergistic antibacterial activity against methicillin-resistant Staphylococcus aureus CCARM 3089 strain assessed as bacterial growth inhibition in presence of ciprofloxacin by checkerboard assay; format: functional
# [27] = test system: Staphylococcus aureus; assay: Synergistic antibacterial activity against methicillin-resistant Staphylococcus aureus CCARM 3089 strain assessed as bacterial growth inhibition in presence of oxacillin by checkerboard assay; format: functional
# [28] = test system: Staphylococcus aureus; assay: Synergistic antibacterial activity against methicillin-resistant Staphylococcus aureus CCARM 3089 strain assessed as fractional inhibitory concentration in presence of ciprofloxacin by checkerboard assay; format: functional
# [29] = test system: Staphylococcus aureus; assay: Synergistic antibacterial activity against multidrug-resistant Staphylococcus aureus CCARM 3089 strain assessed as oxacillin fractional inhibitory concentration by checkerboard assay; format: functional
# [30] = test system: Staphylococcus aureus; assay: Additive antibacterial activity against multidrug-resistant Staphylococcus aureus CCARM 3089 strain assessed as oxacillin fractional inhibitory concentration by checkerboard assay; format: functional
# [31] = test system: Staphylococcus aureus; assay: Additive antibacterial activity against multidrug-resistant Staphylococcus aureus CCARM 3089 strain assessed as fractional inhibitory concentration index in presence of oxacillin by checkerboard assay; format: functional
# [32] = test system: Staphylococcus aureus; assay: Synergistic antibacterial activity against multidrug-resistant Staphylococcus aureus CCARM 3089 strain assessed as fractional inhibitory concentration index in presence of oxacillin by checkerboard assay; format: functional
# [33] = test system: RAW264.7; assay: Antiinflammatory activity in LPS-induced mouse RAW264.7 cells assessed as reduction in TNF alpha mRNA expression level at 20 ug/ml measured after 18 hrs by RT-PCR assay relative to control; format: functional, cell-based; conditions: dose 20.0 µg/ml
# [34] = test system: Lipopolysaccharide (LPS); assay: Displacement of BODIPY-TR-cadaverine from Escherichia coli O111:B4 lipopolysaccharide assessed as increase in fluorescence at 5 ug/ml by fluorescence based assay relative to control; conditions: dose 5.0 µg/ml
# [35] = test system: Lipopolysaccharide (LPS); assay: Binding affinity to Escherichia coli O111:B4 lipopolysaccharide assessed as suppression of FTIC labeled LPS binding to mouse RAW264.7 cells at 20 ug/ml pretreated LPS with cells for 1 hr followed by compound addition measured after 1 hr by flow cytometer assay (reference value: 48.12%); format: cell-based; conditions: dose 20.0 µg/ml
# [36] = test system: Pseudomonas aeruginosa; assay: Antibiofilm activity against multidrug-resistant Pseudomonas aeruginosa assessed as inhibition of biofilm formation; format: functional
# [37] = test system: Pseudomonas aeruginosa; assay: Antibiofilm activity against multidrug-resistant Pseudomonas aeruginosa assessed as biofilm eradication; format: functional
Compound,MIC [1] [µM],MIC [2] [µM],MIC [3] [µM],MIC [4] [µM],MHC [5] [µM],MIC [6] [µM],MIC [7] [µM],MIC [8] [µM],MIC [9] [µM],MIC [10] [µM],Activity [11],Activity [12],Activity [13],Flu intensity [14] [%],Activity [15],MIC [16] [µg/mL],MIC [17] [µg/mL],FIC [18],fractional inhibitory concentration index (FICI) [23],MIC [25] [µg/mL],other results
NCCCCNc1nc(NCCCCN)nc(N2CC(Cc3ccccc3)N(c3nc(NCCCCN)nc(NCCCCN)n3)CC2Cc2ccccc2)n1 (stereo not drawn),10.4,5.2,5.2,5.2,> 332.8,10.4,10.4,10.4,5.2,10.4,Active,Active,Active,19.5,inactive,128,8,0.125,0.375,4,FIC [19]: 0.25; FIC [20]: 0.25; FIC [21]: 0.25; fractional inhibitory concentration index (FICI) [22]: 0.375; fractional inhibitory concentration index (FICI) [24]: 0.5; MIC [26]: 1 µg/mL; MIC [27]: 1 µg/mL; FIC [28]: 0.25; FIC [29]: 0.25; FIC [30]: 0.25; fractional inhibitory concentration index (FICI) [31]: 0.5; fractional inhibitory concentration index (FICI) [32]: 0.5; Activity [33]: Active; Activity [34]: > 50%; Flu intensity [35]: 21.2%
NCCNc1nc(NCCN)nc(N2CC(Cc3ccccc3)N(c3nc(NCCN)nc(NCCN)n3)CC2Cc2ccccc2)n1 (stereo not drawn),6.1,6.1,6.1,6.1,> 389.1,6.1,6.1,12.2,6.1,6.1,Active,Active,Active,21.4,inactive,256,4,0.25,0.5,32,MIC [27]: 8 µg/mL; FIC [29]: 0.25; FIC [30]: 0.25; fractional inhibitory concentration index (FICI) [31]: 0.5; fractional inhibitory concentration index (FICI) [32]: 0.5; MBEC50 [36]: 24.3 µM; MBEC90 [36]: 97.3 µM; MBIC [36]: 24.3 µM; MBIC50 [36]: 3 µM; Activity [33]: Active; Flu intensity [35]: 33.4%; MBEC50 [37]: 24.3 µM; MBEC90 [37]: 97.3 µM

# From ChEMBL document CHEMBL5331051, “Cationic, amphipathic small molecules based on a triazine-piperazine-triazine scaffold as a new class of antimicrobial agents” (Eur J Med Chem, 2022)
